# Data taken from paper PMC13114161 (Antibiotics, 2026).
# Read-outs that look alike come from different tables or passages of the source.
# Experiment: Plasma stability
# Assay type: in vitro ADME, human
# Experimental: Plasma stability was assessed by incubating the compound in plasma at 37 °C and monitoring parent compound disappearance over time by LC-MS/MS. Half-life values were calculated assuming first-order kinetics.
smiles,measurement,setting,value
"NCC(F)C[C@@H](N)CNC(=O)c1cc2ccc(-c3ccc(F)cc3)cc2[nH]1 (stereo partly drawn) [TXA11114, N-((2R)-2,5-diamino-4-fluoropentyl)-6-(4-fluorophenyl)-1H-indole-2-carboxamide]",half-life,"across four species (human, dog, rat, and mouse), read-out: Plasma stability half-life",> 2 h
same,half-life,"human, read-out: Plasma stability t1/2",> 2 h
